Where two headings read alike, the source gives them in different places. *1 amine or outer side, *2 acyl side, *3 side chain or, on linkers, in order; H or OH if unused. Where a SMILES comes first, the peptide text is derived from it. Bridges are numbered along the chain shown (N, C = ends). [ ]: non-standard residue; d: D form. 2Nal = N[C@@H](Cc1ccc2ccccc2c1)C(=O)O; AEF = NCCOc1ccc(C[C@H](N)C(=O)O)cc1; X1 = O=C(Cc1ccc(CN[*:1])cc1)[*:2]; 3Pal = N[C@@H](Cc1cccnc1)C(=O)O; αMeL = CC(C)C[C@](C)(N)C(=O)O; Dab = NCC[C@H](N)C(=O)O
Tests used:
human IL-23R = molecular target: T1, human IL-23R (Homo sapiens, UniProt Q5VWK5); experiment: Binding assay: displacement of fluorophore (TAMRA)-labelled reference compound from human IL-23R (BRET, Nluc-IL23R fusion protein membranes); conditions: for Emax: read-out: % displacement (hIL-23R binding)
T1 construct: Nanoluc luciferase (Nluc); secretion signal encoded by the plasmid (not specified); expressed in transfected cells; crude membranes used in the assay
T1 sequence (Q5VWK5 22-629): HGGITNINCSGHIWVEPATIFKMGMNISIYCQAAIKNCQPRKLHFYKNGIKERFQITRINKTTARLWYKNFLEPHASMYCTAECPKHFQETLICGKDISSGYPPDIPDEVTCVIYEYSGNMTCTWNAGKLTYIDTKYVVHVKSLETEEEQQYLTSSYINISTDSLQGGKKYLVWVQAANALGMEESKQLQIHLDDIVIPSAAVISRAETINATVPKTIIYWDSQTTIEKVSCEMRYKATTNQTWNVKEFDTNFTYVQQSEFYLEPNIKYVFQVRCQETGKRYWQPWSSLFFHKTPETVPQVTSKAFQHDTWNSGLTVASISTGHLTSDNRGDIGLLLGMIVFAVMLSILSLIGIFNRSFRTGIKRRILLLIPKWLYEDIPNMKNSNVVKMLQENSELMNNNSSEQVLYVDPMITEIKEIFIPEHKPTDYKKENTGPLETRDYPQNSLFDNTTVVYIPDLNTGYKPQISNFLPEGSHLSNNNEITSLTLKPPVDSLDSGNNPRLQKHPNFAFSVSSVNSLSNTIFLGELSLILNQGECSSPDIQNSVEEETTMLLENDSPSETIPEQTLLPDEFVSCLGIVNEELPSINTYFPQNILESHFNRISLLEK
From the text: The assay principle relies on Bioluminescence Resonance Energy Transfer (BRET) between a fluorophore-labelled reference compound binding to the IL-23R part of a fusion protein consisting of the IL-23R fused to a Nanoluc luciferase enzyme (Nanoluc). The Nanoluc is placed in the N-terminus in close proximity to the binding domain of the ligand. Upon close proximity between the fluorophore of the fluorophore-labelled compound and the Nanoluc of the fusion protein, bioluminescence energy generated from conversion of a Nanoluc substrate, is transferred to the fluorophore resulting in an increase in BRET. In presence of an unlabelled compound, the unlabelled compound displaces the fluorophore-labelled peptide from its binding site resulting in a decrease in BRET. The concentration for which half of the fluorophore-labelled peptide is displaced by the unlabelled compound depends on the affinity of the compound for the IL-23R, and is termed the IC50 concentration.
The plasmid also contained a gene to confer resistance for the antibiotic hygromycin. A cell line stably expressing the Nluc-IL23R fusion protein was generated by transfection of HEK293 cells with the expression plasmid and selected with hygromycin for 3 weeks in Growth medium consisting of DMEM w/Glutamax-I containing, 10% V/V FBS, 1% V/V P/S, 1 mM Sodium Pyruvate, and 1× NEAA, and 0.3 mg/mL hygromycin. The remaining cells were propagated and considered a stable expressing Nluc-IL23R fusion protein pool clone.
Cells expressing the Nluc-IL23R fusion protein were expanded in Growth medium and membranes prepared by homogenization of a cell pellet from 18 T175 flasks (4° C. in subsequent steps). The cell pellet was lysed Tris 10 mM, 7.5, 1 mM EDTA and protease inhibitors (Complete, Roche) and homogenized using a 15 mL glass-dounce by 50 strokes. The homogenate was spun at spin @1500 rpm for 10 min, the supernatant transferred to SV-34 tubes and spun at 40000 g for 20 min at 4° C. to pellet the crude membranes. The supernatant was then removed, the pellet resuspended in 5 mL buffer containing 50 mM HEPES pH 7.4, 5 mM EGTA, and 5 mM MgCl2, and homogenized. Aliquots of the resuspended and homogenized membranes containing the Nluc-IL23R fusion protein were stored at −80° C. until use.
The plate was sealed with light impermeable plate seals, and incubated on an orbital shaker 400 rpm for 2 hours at room temperature. To determine the BRET ratio, the plate seal was removed and 25 μL of the Nanoluc substrate (Promega N1572) diluted 1:500 was added to each well and incubated for 1-2 minutes on an orbital shaker at 400 rpm. […] The BRET ratio was calculated as the fluorescence from the TAMRA/nanoluc bioluminescence.
Compound potency (IC50) and maximal displacement (% displacement) were estimated by computer-aided curve fitting using a 4-parameter logistic (4PL) non-linear model. The IC50 and maximal for each compound was determined by computer-aided curve fitting using a 4-parameter logistic (4PL) non-linear model.

[1] = tested on: IL-23 mediated STAT3 signalling (DB cells); experiment: Functional inhibition of IL-23 mediated STAT3 signalling (phospho-STAT3 Tyr705) in DB cells; assay type: cell-based, human; conditions: for hIL-23 (pSTAT3) antagonist % inhibition: Table 3-2, maximal inhibitory response, EC80 of hIL-23
How it was run: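 Phospho-STAT3 in lysed DB cells quantified by MSD kit after 90 min exposure to EC80 human IL-23, following 15 min compound pretreatment (37° C, 5% CO2). IC50 and maximal inhibition derived from curves normalized between IL-23-only and buffer-only controls.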

[2] = Peptide stability in simulated intestinal fluid (SIF); assay type: in vitro ADME; conditions: pig, simulated intestinal fluid, SIF, pH 6.8, pancreatin, 37° C., 10 μM; for remaining at 4 h, 10 µM: read-out: SIF (% remaining 4 h)
Method: (§1) SGF and SIF were prepared based on the United States Pharmacopeia specifications (Test Solutions, United States Pharmacopeia 35, NF 30, 2012). SGF was prepared by dissolving sodium chloride (0.2 g) in 50 mL of water. A volume of 0.7 mL of 10 M HCl was added to adjust the pH of the solution to 1.2 and the volume made up to 100 mL with water. 64 mg porcine pepsin (P7125, Sigma Aldrich) was gently dissolved into 20 mL preheated (37° C.) solution (3.2 g/L) immediately prior to the incubation. SIF was prepared by dissolving monobasic potassium phosphate (0.68 g) in 50 mL of water and adjusting the pH to 6.8 with 1 M NaOH. The volume was subsequently made up to 100 mL with water. 200 mg porcine pancreatin (P1625, Sigma Aldrich) was gently dissolved into 20 mL preheated (37° C.) solution (10 g/L) immediately prior to the incubation.
(§2) To initiate the incubations, 20 μL of peptide stock solution in 50% v/v isopropanol was deposited at the bottom of a well plate and 580 μL matrix solution was added to give a final substrate concentration of 10 μM. The incubation was performed at 37° C. with gentle shaking. 70 μL aliquots were removed at 0, 1 and 4 hours and quenched into 210 μL ice-cold precipitant solution (95% v/v acetonitrile with 0.1% v/v formic acid). After the last timepoint, the sampling plate was mixed for 10 min on a shaking table and centrifuged 10 min at 2200 g. 70 μL resulting supernatant was diluted with 150 μL water, mixed and centrifugated before analysis by liquid chromatography high resolution mass spectrometry. The zero sample was reinjected after the 4-hour sample to confirm that no drift in instrument sensitivity had occurred during the run. Percent remaining at each timepoint was calculated relative to timepoint zero based on absolute peak areas.
(§3) Compounds with a SIF stability (after 4 h) above 70% are considered highly SIF stable. Compounds with a SIF stability (after 4 h) between 30-70% (including 30% and 70%) are considered moderately SIF stable. Compounds with a SIF stability (after 4 h) below 30% are considered SIF unstable. SIF stability values above 100% are due to assay uncertainty and indicate the compound has not degraded.

[3] = Peptide stability in simulated gastric fluid (SGF); assay type: in vitro ADME; conditions: pig, pH 1.2, pepsin, 37° C.
Method: as §1, §2
as §3, with “SGF” for “SIF”

[4] = Table 3-2, EC80 of hIL-23, read-out: hIL-23 (pSTAT3) antagonist IC50
[5] = EC80 of hIL-23, read-out: IC50 (pSTAT3)

## CNC(=O)[C@H](Cc1cccnc1)NC(=O)[C@H](CCN)NC(=O)[C@@H]1CCC(=O)NCc2ccc(cc2)CC(=O)N[C@@H](C)C(=O)N[C@H]2CCC(=O)NCC[C@H](NC(=O)[C@H](CCC(N)=O)NC(=O)[C@H](Cc3c[nH]c4ccccc34)NC2=O)C(=O)N[C@@H](Cc2ccc(OCCN)cc2)C(=O)N[C@@H](Cc2cnc3ccccc3c2)C(=O)NC(C)(C)C(=O)N1 [Compound 49, 4-aminomethyl-phenylacetyl](1c)*AE(2c)WQ[Dab](2c)[Y(2-aminoethoxy)][3-quinolinylalanine][Aib]E(1c)[Dab][3-(3-Pyridyl)-alanyl]-[NHMe]]
Human IL-23R
  IC50: 0.023 nM
  Emax: 89%
[1]; [4]
  IC50: 0.093 nM
[1]
  hIL-23 (pSTAT3) antagonist % inhibition: 100%
[2]
  remaining at 1 h, 10 µM: 93%
  remaining at 4 h, 10 µM: 89%

## CNC(=O)[C@H](Cc1cccnc1)NC(=O)[C@H](CCN)NC(=O)[C@@H]1CCC(=O)NCc2ccc(cc2)CC(=O)N[C@@H](C)C(=O)N[C@H]2CCC(=O)NCC[C@H](NC(=O)[C@H](CCC(N)=O)NC(=O)[C@H](Cc3c[nH]c4ccccc34)NC2=O)C(=O)N[C@@H](Cc2ccc(OCCN)cc2)C(=O)N[C@@H](Cc2c[nH]c3ncccc23)C(=O)NC(C)(C)C(=O)N1 [Compound 44, [4-Aminomethyl-phenylacetyl](1c)*AE(2c)WQ[Dab](2c)[Y(2-aminoethoxy)][7-AzaTrp][Aib]E(1c)[Dab][3-(3-Pyridyl)-Ala]-[NHMe]]
[2]
  remaining at 1 h, 10 µM: 78%
  remaining at 4 h, 10 µM: 91%

## CC(C)C[C@]1(C)NC(=O)[C@H](Cc2ccc3ccccc3c2)NC(=O)[C@H](Cc2ccc(OCCN)cc2)NC(=O)[C@@H]2CCNC(=O)CC[C@H](NC(=O)[C@H](CO)NC(=O)Cc3ccc(cc3)CNC(=O)CC[C@@H](C(=O)N[C@@H](CCN)C(=O)N[C@@](C)(Cc3cccnc3)C(N)=O)NC1=O)C(=O)N[C@@H](Cc1c[nH]c3ccccc13)C(=O)N[C@@H](CCC(N)=O)C(=O)N2 [Compound 3, [4-Aminomethyl-phenylacetyl](1c)*SE(2c)WQ[Dab](2c)[Y(2-aminoethoxy)][2-Nal][2-Me-Leu]E(1c)[Dab][2-Me-3-(3-Pyridyl)-Ala]-[NH2]]
Human IL-23R
  Emax: 99%
[1]; [5]
  IC50: 1.7 nM
[1]; [4]
  IC50: 1.7 nM
[1]
  hIL-23 (pSTAT3) antagonist % inhibition: 98%
[3]
  remaining at 4 h, 10 µM: 104%

## CC(C)C[C@]1(C)NC(=O)[C@H](Cc2ccc3ccccc3c2)NC(=O)[C@H](Cc2ccc(OCCN)cc2)NC(=O)[C@@H]2CCNC(=O)CC[C@H](NC(=O)[C@H](CO)NC(=O)Cc3ccc(cc3)CNC(=O)CC[C@@H](C(=O)N[C@@H](CCN)C(=O)N(C)[C@@H](Cc3cccnc3)C(N)=O)NC1=O)C(=O)N[C@@H](Cc1c[nH]c3ccccc13)C(=O)N[C@@H](CCC(N)=O)C(=O)N2 [Compound 4, [4-Aminomethyl-phenylacetyl](1c)*SE(2c)WQ[Dab](2c)[Y(2-aminoethoxy)][2-Nal][2-Me-Leu]E(1c)[Dab][N—Me-3-(3-Pyridyl)-Ala]-[NH2]]
Human IL-23R
  IC50: 0.17 nM
  Emax: 111%
[1]; [5]
  IC50: 6.5 nM
[1]; [4]
  IC50: 6.5 nM
[1]
  hIL-23 (pSTAT3) antagonist % inhibition: 100%
[3]
  remaining at 4 h, 10 µM: 103%

## CNC(=O)[C@H](Cc1cccnc1)NC(=O)[C@H](COC)NC(=O)[C@@H]1CCC(=O)NCc2ccc(cc2)CC(=O)N[C@@H](CO)C(=O)N[C@H]2CCC(=O)NCC[C@H](NC(=O)[C@H](CCC(N)=O)NC(=O)[C@H](Cc3c[nH]c4ccccc34)NC2=O)C(=O)N[C@@H](Cc2ccc(OCCN)cc2)C(=O)N[C@@H](Cc2ccc3ccccc3c2)C(=O)N[C@@](C)(CC(C)C)C(=O)N1 [Compound 37, [4-Aminomethyl-phenylacetyl](1c)*SE(2c)WQ[Dab](2c)[Y(2-aminoethoxy)][2-Nal][2-Me-Leu]E(1c)[Ser(OMe)][3-(3-Pyridyl)-Ala]-[NHMe]]
Human IL-23R
  Emax: 95%
[1]; [4]
  IC50: 0.069 nM
[1]
  hIL-23 (pSTAT3) antagonist % inhibition: 100%
[3]
  remaining at 4 h, 10 µM: 102%

## CNC(=O)[C@H](Cc1cccnc1)NC(=O)[C@H](CCN)NC(=O)[C@@H]1CCC(=O)NCc2ccc(cc2)CC(=O)N[C@@H](C)C(=O)N[C@H]2CCC(=O)NCC[C@H](NC(=O)[C@H](CCC(N)=O)NC(=O)[C@H](Cc3c[nH]c4ccccc34)NC2=O)C(=O)N[C@@H](CCc2ccccc2)C(=O)N[C@@H](Cc2ccc3ccccc3c2)C(=O)NC(C)(C)C(=O)N1 [Compound 41, [4-Aminomethyl-phenylacetyl](1c)*AE(2c)WQ[Dab](2c)[hPhe][2-Nal][Aib]E(1c)[Dab][3-(3-Pyridyl)-Ala]-[NHMe]]
Human IL-23R
  Emax: 104%
[3]
  remaining at 4 h, 10 µM: 102%

## CNC(=O)[C@H](Cc1cccnc1)NC(=O)[C@H](Cc1c[nH]cn1)NC(=O)[C@@H]1CCC(=O)NCc2ccc(cc2)CC(=O)N[C@@H](CO)C(=O)N[C@H]2CCC(=O)NCC[C@H](NC(=O)[C@H](CCC(N)=O)NC(=O)[C@H](Cc3c[nH]c4ccccc34)NC2=O)C(=O)N[C@@H](Cc2ccc(OCCN)cc2)C(=O)N[C@@H](Cc2ccc3ccccc3c2)C(=O)N[C@@](C)(CC(C)C)C(=O)N1 [Compound 34, [4-Aminomethyl-phenylacetyl](1c)*SE(2c)WQ[Dab](2c)[Y(2-aminoethoxy)][2-Nal][2-Me-Leu]E(1c)H[3-(3-Pyridyl)-Ala]-[NHMe]] ([X1]SEWQ[Dab][AEF][2Nal][αMeL]EH[3Pal]-NHMe; lactam 3-6, N-10)
Human IL-23R
  Emax: 90%
[1]
  hIL-23 (pSTAT3) antagonist % inhibition: 102%
[3]
  remaining at 4 h, 10 µM: 95%

## CC(C)C[C@]1(C)NC(=O)[C@H](Cc2ccc3ccccc3c2)NC(=O)[C@H](Cc2ccc(OCCN)cc2)NC(=O)[C@@H]2CCNC(=O)CC[C@H](NC(=O)[C@H](CO)NC(=O)Cc3ccc(cc3)CNC(=O)CC[C@@H](C(=O)N[C@@H](CCN)C(=O)N[C@@H](Cc3c[nH]cn3)C(=O)N[C@@H](Cc3cccnc3)C(N)=O)NC1=O)C(=O)N[C@@H](Cc1c[nH]c3ccccc13)C(=O)N[C@@H](CCC(N)=O)C(=O)N2 [Compound 12, [4-Aminomethyl-phenylacetyl](1c)*SE(2c)WQ[Dab](2c)[Y(2-aminoethoxy)][2-Nal][2-Me-Leu]E(1c)[Dab]H[3-(3-Pyridyl)-Ala]-[NH2]] ([X1]SEWQ[Dab][AEF][2Nal][αMeL]E[Dab]H[3Pal]-NH2; lactam 3-6, N-10)
Human IL-23R
  Emax: 104%
[1]; [4]
  IC50: 3.5 nM
[1]
  hIL-23 (pSTAT3) antagonist % inhibition: 100%
[3]; 1 h
  remaining at 1 h, 10 µM: 94%

From US20260327264A1, “PEPTIDE INHIBITORS OF INTERLEUKIN-23 RECEPTOR” (Zealand Pharma A/S, priority 2023, published 2026)
